Results reported in patent US7015212B1, “Thiazepine inhibitors of HIV-1 integrase” (The United States of America as represented by the …, priority 1999, dated 2006).
Values joined by “and” are separate entries in the source; they are usually repeats but may differ in a detail not shown here. Identical values can stand only once. Like-named read-outs stand apart in the source and are kept apart here. Values belong to the compound of their own block, whether it stands above or below them.

Key:
[1] = molecular target: T1, purified HIV-1 integrase (HIV-1 IN) (Human immunodeficiency virus type 1 group M subtype B, UniProt P12497); test: biochemical;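 note: integrase at 200 nM exposed to inhibitor 30 min at 30 °C, then 1 h with 20 nM 5′-32P-labelled 21-mer DNA, 3′-processing or strand transfer products quantified on denaturing gels versus no-drug enzyme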
Protocol: (§3) To analyze the extent of 3′-processing and strand transfer using 5′-end labeled substrates, AE118 was 5′-end labeled using T4 polynucleotide kinase (Gibco BRL) and γ[^32P]-ATP (Dupont-NEN). To determine the extent of 30mer target strand generation during disintegration, AE157 was 5′-end labeled and annealed to AE156, AE146, and AE117. The kinase was heat-inactivated and AE117 was added to the same final concentration. The mixture was heated at 95° C., allowed to cool slowly to room temperature, and run through a G-25 Sephadex quick spin column (Boehringer Mannheim, Indianapolis, Ind.) to separate annealed double-stranded oligonucleotide from unincorporated label.
(§4) To determine the extent of 3′-processing and strand transfer, integrase was preincubated at a final concentration of 200 nM with the inhibitor in a reaction buffer (50 mM NaCl, 1 mM HEPES, pH 7.5, 50 μM EDTA, 50 μM dithiothreitol, 10% glycerol (w/v), 7.5 mM MnCl2, 0.1 mg/ml bovine serum albumin, 10 mM 2-mercaptoethanol, 10% dimethyl sulfoxide, and 25 mM MOPS, pH 7.2) at 30° C. for 30 minutes. Then, 20 nM of the 5′-end ^32P labeled linear oligonucleotide substrate was added, and incubation was continued for an additional one hour. Reactions were quenched by the addition of an equal volume (16 μ) of loading dye (98% deionized formamide, 10 mM EDTA, 0.025% xylene cyanol and 0.025% bromophenol blue). An aliquot (5 μl) was electrophoresed on a denaturing 20% polyacrylamide gel (0.09 M tris-borate pH 8.3, 2 mM EDTA, 20% acrylamide, 8M urea).
(§5) Gels were dried, exposed in a PhosphorImager cassette, and analyzed using a Molecular Dynamics PhosphorImager (Sunnyvale, Calif.). Percent inhibition was calculated using the following equation: % I=100×[1−(D−C)/(N−C)] where C, N, and D are the fractions of 21-mer substrate converted to 19-mer (3′-processing product) or strand transfer products for DNA alone (C), DNA plus integrase (N), and integrase plus drug (D). All IC50 values were determined by plotting the drug concentration versus percent inhibition, and determining the concentration which produced 50% inhibition.

[2] = test system: T4 lymphocytes (CEM cell line); test: Cytotoxicity in uninfected CEM cells (XTT toxicity control); conditions: read-out: Cell data (μM) CC50: 50% cytotoxic concentration; uninfected CEM cells, 6 days, XTT
Protocol: (§1) The anti-HIV drug testing was performed at NCI based on a protocol described by Weislow et al.^36 All compounds were dissolved in dimethyl sulfoxide and diluted 1:100 in cell culture medium. Exponentially growing T4 lymphocytes (CEM cell line) were added at 5000 cells per well. Frozen virus stock solutions were thawed immediately before use, suspended in complete medium to yield the desired multiplicity of infection (m. o. i.≈0.1), and added to the microtiter wells, resulting in a 1:200 final dilution of the compound. Uninfected cells with the compound served as a toxicity control, and infected and uninfected cells without the compound served as basic controls.
(§2) Cultures were incubated at 37° C. in a 5% CO2 atmosphere for 6 days. The tetrazolium salt, XTT was added to all wells, and cultures were incubated to allow formazan color development by viable cells. Individual wells were analyzed spectrophotometrically to quantitate formazan production, and in addition were viewed microscopically for detection of viable cells and confirmation of protective activity.

[3] = molecular target: T1, purified HIV-1 integrase (HIV-1 IN)
Protocol: as §3, §4, §5

HIV-1 infected CEM cells = test: Anti-HIV assay in cultured CEM cells (NCI XTT protocol); type: cell-based
Protocol: as §1, §2

[4] = Cytotoxicity in uninfected CEM cells (XTT toxicity control); conditions: human, uninfected CEM cells (T4 lymphocytes)
Protocol: as §1, §2

HIV-1 IN = molecular target: T2, HIV-1 IN (Human immunodeficiency virus type 1 group M subtype B, UniProt P12497); test: HIV-1 integrase inhibition with Mg+2 as cofactor (gel assay); type: biochemical; conditions: compared with Mn+2, 1000, 333, 111, 37 μM
T2 construct: An expression system for the wild-type integrase and the IN^50–212 (F185K) were obtained from the Laboratory of Molecular Biology, NIDDK; made in house
Protocol: FIGS. 2 and 3 show concentration dependent inhibition of HIV-1 IN by thiazolothiazepines 1, 19, and 20 using Mn^+2 (FIG. 2) and Mg^+2 (FIG. 3) as a cofactor. Lane 1, DNA alone, lanes 2 and 15 DNA and integrase, lanes 3–6, 7–10, 11–14 DNA, integrase, and compounds 1, 19, and 20 at 1000, 333, 111, and 37 μM, respectively. See Table 1 for compound identifiers 1, 19, 20.
A 21-mer oligonucleotide corresponding to the last 21 bases on the HIV-1 viral DNA in the U5 region of long terminal repeat (LTR) was radiolabeled with ^32P. This is shown in the FIGS. 2 and 3 as a band corresponding to DNA alone. Integrase will cleave the last two bases of this DNA in the presence of Mn^+2 or Mg^+2 to give a 19-mer DNA substrate (lane 2) which runs faster on the gel and is indicated as 19-mer on the Figures. When an inhibitor is added this process is blocked, therefore the original 21-mer DNA would not be cut. When an inhibitor is added at various concentrations, percent inhibition at every concentration will be calculated by quantification of the intensity of each band using an Imagequant program.
The gels are run using polyacrylamide according to the standard procedures. Upon completion of electrophoresis run, the gels are dried and exposed to a phosphorimager cassette. The cassettes are analyzed by the phosphorimager, and the bands are shown on a computer screen. The intensity of each band is quantitated, plotted against concentrations of drugs, and the IC50 values are calculated from the graphs.

Compound: Cc1ccc2c(c1)C(=O)N1CCSC1C(=O)S2 (racemic) [Compound 4, (±)-2,3-Dihydro-7-methyl-5H-thiazolo[2,3-c][1,4]benzothiazepine-5,11 (11aH)-dione]
IC50 [1]: 55 µM and 64 µM

Compound: CN1CCN([C@@H]2Sc3ccccc3C(=O)N3CCC[C@@H]23)CC1 (racemic) [Compound 27, (±)-cis-2,3,11,11a-Tetrahydro-11-(4-methylpiperazin-1-yl)-1H,5H-pyrrolo[2,1-c][1,4]benzothiazepin-5-one]
CC50 [2]: > 125 µM

Compound: CN(C)Cc1ccc2n1C(=O)c1ccccc1SC2c1ccc(F)cc1 (stereo not drawn) [Compound 30]
IC50 [1]: > 1000 µM

Compound: CCOC(=O)C1Sc2ccccc2C(=O)n2cccc21 (stereo not drawn) [Compound 29]
IC50 [1]: > 1000 µM

Compound: COc1ccc2c(c1)C(=O)N1CSCC1C(=O)S2 (racemic) [Compound 10, (±)-1,11a-dihydro-7-methoxy-3H,5H, 11H-thiazolo[4,3-c][1,4]benzothiazepine-5,11-dione]
CC50 [2]: > 200 µM

melting point: 219 to 220 °C
Compound: O=C1Sc2ccc(Br)cc2C(=O)N2CCSC12 (racemic) [Compound 3, (±)-7-Bromo-2,3-dihydro-5H-thiazolo[2,3-c][1,4]benzothiazepine-5,11 (11aH)-dione]

Compound: O=C1Sc2ccccc2Cn2cccc21 [Compound 28]
CC50 [2]: > 200 µM
IC50 [3]: 590 µM and 300 µM

Compound: O=C1Sc2cc3ccccc3cc2C(=O)N2CCSC12 (racemic) [Compound 19, (±)-2,3-Dihydro-5H-naphto[2,3-f]thiazolo[2,3-c][1,4]thiazepine-5,13(13aH)-dione]
therapeutic index (TI=CC50/EC50) (HIV-1 infected CEM cells): > 5
CC50 at 6 days [4]: > 316 µM
activity against IN in the presence of Mg+2 (HIV-1 IN): active in the presence of Mg^+2 within the same concentration range as in Mn^+2
IC50 [1]: 47 ± 6 µM

Compound: COc1cc2c(cc1OC)C(=O)N1CCCC1CS2 (stereo not drawn) [Compound 24]
CC50 at 6 days [4]: > 200 µM

Compound: COc1ccc2c(c1)C(=O)N1C[S+]([O-])CC1C(=O)S2 (racemic) [Compound 18, (±)-cis-1,11a-Dihydro-7-methoxy-3H,5H,11H-thiazolo[4,3-c][1,4]benzothiazepine-5,11-dione 2-Oxide]
melting point: 172 to 174 °C
IC50 [1]: 142 µM and 84.5 µM

Compound: O=C1Sc2ccc(Cl)cc2C(=O)N2C[S+]([O-])CC12 (racemic) [Compound 17, (±)-cis-7-Chloro-1,11a-dihydro-3H,5H,11H-thiazolo[4,3-c][1,4]benzothiazepine-5,11-dione 2-Oxide]
melting point: 213 to 215 °C
IC50 [1]: 280 µM and 200 µM and 260 µM and 215 µM

melting point: 161 to 162 °C
Compound: CN1CCN(Cc2ccc3n2Cc2ccccc2SC3c2ccccc2)CC1 (racemic) [Compound 31, (±)-3-[(4-Methylpiperazin-1-yl)methyl]-11-phenyl-5H,11H-pyrrolo [2,1-c][1,4]benzothiazepine]

melting point: 137 to 141 °C
Compound: O=C1c2ccccc2SC(O)(c2ccccc2)C2CCCN12 (racemic) [Compound 26, (±)-2,3,11,11a-Tetrahydro-11-hydroxy-11-phenyl-1H,5H-pyrrolo [2,1-c][1,4]benzothiazepin-5-one]

melting point: 204 to 205 °C
Compound: O=C1Sc2ccc(Cl)cc2C(=O)N2CSCC12 (racemic) [Compound 6, (±)-7-Chloro-1,11a-dihydro-3H,5H,11H-thiazolo[4,3-c][1,4]benzothiazepine-5,11-dione]
CC50 [2]: > 100 µM

Compound: O=C1c2ccccc2SC(O)C2CCCN12 (stereo not drawn) [Compound 25]
CC50 at 6 days [4]: > 200 µM

Compound: COc1cc2c(cc1OC)C(=O)N1CSCC1C(=O)S2 (stereo not drawn) [Compound 11]
CC50 at 6 days [4]: > 50 µM
IC50 [1]: 330 µM and 670 µM and 630 µM

Compound: COC1Sc2ccccc2C(=O)N2CCCC12 (stereo not drawn) [Compound 22]
CC50 [2]: > 200 µM

Compound: CC(=O)OC1Sc2ccccc2C(=O)N2CCCC12 (stereo not drawn) [Compound 21]
CC50 at 6 days [4]: > 200 µM

Compound: Cc1ccc2c(c1)C(=O)N1CSCC1C(=O)S2 (racemic) [Compound 8, (±)-1,11a-Dihydro-7-methyl-3H,5H,11H-thiazolo[4,3-c][1,4]benzothiazepine-5,11-dione]
CC50 [2]: 35 µM

Compound: O=C1Sc2ccccc2C(=O)N2CCCCC12 (stereo not drawn) [Compound 14]
CC50 at 6 days [4]: > 200 µM
IC50 [1]: 343 µM and 406 µM and 495 µM

melting point: 213 to 214 °C
Compound: O=C1Sc2ccc(Br)cc2C(=O)N2CSCC12 (racemic) [Compound 7, (±)-7-Bromo-1,11a-dihydro-3H,5H,11H-thiazolo[4,3-c][1,4]benzothiazepine-5,11-dione]
CC50 [2]: > 200 µM

Compound: O=C1Sc2ccc(Cl)cc2C(=O)N2CCSC12 (racemic) [Compound 2, (±)-7-Chloro-2,3-dihydro-5H-thiazolo[2,3-c][1,4]benzothiazepine-5,11 (11aH)-dione]
CC50 [2]: > 50 µM

Compound: COc1cc2c(cc1OC)C(=O)N1CCCC1C(=O)S2 (stereo not drawn) [Compound 13]
CC50 at 6 days [4]: > 200 µM

Compound: O=C1Sc2ccccc2C(=O)N2CCSC12 (stereo not drawn) [Compound 1]
therapeutic index (TI=CC50/EC50) (HIV-1 infected CEM cells): > 1.8
CC50 at 6 days [4]: > 200 µM
activity against IN in the presence of Mg+2 (HIV-1 IN): active in the presence of Mg^+2 within the same concentration range as in Mn^+2
IC50 [1]: 110 µM and 146 µM

Compound: O=C1Sc2ccccc2C(=O)N2C[S+]([O-])CC12 (racemic) [Compound 16, (±)-cis-1,11a-Dihydro-3H,5H,11H-thiazolo[4,3-c][1,4]benzothiazepine-5,11-dione 2-oxide]
IC50 [1]: 215 µM and 222 µM and 200 µM and 185 µM

melting point: 231 to 232 °C
Compound: O=C1Sc2cc([N+](=O)[O-])ccc2C(=O)N2CSCC12 (racemic) [Compound 9, (±)-1,11a-Dihydro-8-nitro-3H,5H,11H-thiazolo[4,3-c][1,4]benzothiazepine-5,11-dione]
CC50 [2]: > 50 µM

Compound: Cc1ccc2c(c1)C(=O)N1CC[S+]([O-])C1C(=O)S2 (racemic) [Compound 15, (±)-cis-2,3-Dihydro-7-methyl-5H-thiazolo[2,3-c][1,4]benzothiazepine-5,11 (11aH)-dione 1-Oxide]
CC50 at 6 days [4]: > 100 µM
melting point: 211 to 212 °C
IC50 [1]: 590 ± 350 µM

Compound: O=C1Sc2ccccc2C(=O)N2CSCC12 (racemic) [Compound 5]
CC50 at 6 days [4]: > 200 µM
IC50 [1]: 227 µM and 208 µM

Compound: O=C1Sc2cc3ccccc3cc2C(=O)N2CSCC12 (racemic) [Compound 20, (±)-1,13a-Dihydro-3H,5H,11H-naphto[2,3-f]thiazolo[4,3-c][1,4]thiazepine-5,13-dione]
CC50 at 6 days [4]: > 316 µM
activity against IN in the presence of Mg+2 (HIV-1 IN): active in the presence of Mg^+2 within the same concentration range as in Mn^+2
IC50 [1]: 92 µM and 100 µM
